{"source": "patent US20240318141A1", "about": "“MATURATION AGENT” (Orizuru Therapeutics, Inc., priority 2021, published 2024)", "key": {"[1]": {"test_system": "insulin-producing cell population (QHJI-114s04 iPS cell line)", "conditions": "induction of differentiation using medium supplemented with FGF receptor 1 inhibitor; see WO2019/208505; cited from earlier work"}, "[2]": {"test_system": "non-endocrine cells in insulin-producing cell population (QHJI-I14s04 iPS cell line)", "test": "Cisplatin or docetaxel treatment in step 6), then extended culture in basal medium containing EGF (Example 2)", "type": "cell-based, human", "excerpt": "The differentiation of a QHJI-I14s04 iPS cell line into an insulin-producing cell population was induced by the three-dimensional culture method using a bioreactor according to steps 1) to 6) described above and the previous report (Nature Biotechnology 2014; 32: 1121-1133). Specifically, the iPS cells were subjected to the first culture in a medium (DMEM/1% B-27 (INS+)/Penicillin Streptomycin/dimethyl sulfoxide) containing differentiation-inducing factors (GSK3β inhibitor, ROCK inhibitor and low dose of activin A) under conditions causing action of insulin, and subsequently subjected to the second culture in a medium (DMEM/1% B-27 (INS−)/Penicillin Streptomycin/dimethyl sulfoxide) containing a differentiation-inducing factor (low dose of activin A) under conditions causing no action of insulin to obtain a definitive endoderm cell population. Further, a pancreatic endocrine progenitor cell population obtained by the induction of differentiation from the definitive endoderm cell population was cultured in a medium (Improved MEM/1% B-27 (INS+)/Penicillin Streptomycin) containing differentiation-inducing factors (ALK5 inhibitor II, T3, LDN, Y-secretase inhibitor RO, and ascorbic acid) and FGF receptor 1 inhibitor (PD-166866) to obtain an insulin-producing cell population.\nAn insulin-producing cell population obtained without the addition of cisplatin and docetaxel was used as a control cell population and subjected to extended culture in the same manner as above.\nMarker protein expression (PDX1, CHGA, and Ki67) in each insulin-producing cell population before the start of and after the completion of extended culture was measured by flow cytometry. Samples after the completion of extended culture were collected by sampling three times from the same culture container. The number of cells was measured in an automatic cell counter at the time of sample preparation for flow cytometry, and the total number of cells per mL of the bioreactor was calculated. The number of CHGA-positive cells, the number of PDX1-positive and CHGA-negative cells, and the number of PDX1-negative and CHGA-negative cells were calculated from the obtained total number of cells and the flow cytometry results."}, "[3]": {"test_system": "non-endocrine cells in insulin-producing cell population (Ff-I14s04 iPS cell line)", "test": "Extended culture of insulin-producing cell population in basal medium containing EGF (Example 1)", "type": "cell-based, human", "excerpt": "The differentiation of a Ff-I14s04 iPS cell line into an insulin-producing cell population was induced by the three-dimensional culture method using a bioreactor and a multiwell plate according to steps 1) to 6) described above and the previous report (Nature Biotechnology 2014; 32: 1121-1133). Specifically, the iPS cells were subjected to the first culture in a medium (DMEM/1% B-27 (INS+)/Penicillin Streptomycin/dimethyl sulfoxide) containing differentiation-inducing factors (GSK3β inhibitor, ROCK inhibitor and low dose of activin A) under conditions causing action of insulin, and subsequently subjected to the second culture in a medium (DMEM/1% B-27 (INS−)/Penicillin Streptomycin/dimethyl sulfoxide) containing a differentiation-inducing factor (low dose of activin A) under conditions causing no action of insulin to obtain a definitive endoderm cell population. Further, a pancreatic endocrine progenitor cell population obtained by the induction of differentiation from the definitive endoderm cell population was cultured in a medium (Improved MEM/1% B-27 (INS+)/Penicillin Streptomycin) containing differentiation-inducing factors (ALK5 inhibitor II, T3, LDN, γ-secretase inhibitor RO, and ascorbic acid) and FGF receptor 1 inhibitor (PD-166866) to obtain an insulin-producing cell population. The exchange from the bioreactor to the multiwell plate was carried out in step 6).\nThe insulin-producing cell population was subjected to extended culture for 4 weeks in a basal medium (MCDB131/20 mM Glucose/NaHCO3/FAF-BSA/ITS-X/Glutamax/Penicillin Streptomycin). EGF, when added for the purpose of promoting the proliferation of unintended cells, was added at 50 ng/ml (final concentration) to the basal medium for culture.\nMarker protein expression (PDX1 and CHGA) in the insulin-producing cell population before the start of and after the completion of extended culture was measured by flow cytometry. Respective samples were collected by sampling from separate culture containers. The number of cells was measured in an automatic cell counter at the time of sample preparation for flow cytometry, and the total number of cells per well of the multiwell plate was calculated. The number of CHGA-positive cells, the number of PDX1-positive and CHGA-negative cells, and the number of PDX1-negative and CHGA-negative cells were calculated from the obtained total number of cells and the flow cytometry results."}, "[4]": {"conditions": "after extended culture 4 weeks, EGF present, average of three samplings"}, "[5]": {"conditions": "after extended culture 4 weeks, EGF present, single samplings"}, "[6]": {"conditions": "after extended culture involving EGF, with respect to control cell population"}, "[7]": {"conditions": "s6d11 (before extended culture); 3 μM cisplatin or 1 μM docetaxel for 7 days from day 4 of step 6)"}, "[8]": {"conditions": "after extended culture 4 weeks, EGF present (50 ng/ml)"}, "[9]": {"conditions": "extended culture in basal medium containing EGF"}}, "note": "Values joined by “and” are separate entries in the source; they are usually repeats but may differ in a detail not shown here. Equal values may be shown once."}
{"compound": "COc1cc(OC)cc(-c2cc3cnc(N)nc3nc2NC(=O)NC(C)(C)C)c1", "note": "[PD-166866, 1-[2-amino-6-(3,5-dimethoxyphenyl)-pyrido(2,3-d)pyrimidin-7-yl]-3-tert-butylurea]", "values": [{"measurement": "abundance of CHGA-negative and Ki67-positive (CHGA−/Ki67+) cells (in words)", "setting": "[1]", "result": "drastically reduced"}]}
{"compound": "N.N.[Cl][Pt][Cl]", "note": "[Cisplatin, cisplatin]", "values": [{"measurement": "The number of cells CHGA+, average", "setting": "[2]; [4]", "result": "23 ×10^4 cells/mL"}, {"measurement": "The number of cells PDX+/CHGA−, average", "setting": "[2]; [4]", "result": "97 ×10^4 cells/mL"}, {"measurement": "The number of cells PDX−/CHGA−, average", "setting": "[2]; [4]", "result": "5.4 ×10^4 cells/mL"}, {"measurement": "Total number of cells, average", "setting": "[2]; [4]", "result": "125 ×10^4 cells/mL"}, {"measurement": "The number of cells CHGA+", "setting": "[2]; [5]", "result": "24 ×10^4 cells/mL and 21 ×10^4 cells/mL"}, {"measurement": "The number of cells PDX+/CHGA−", "setting": "[2]; [5]", "result": "97 ×10^4 cells/mL and 84 ×10^4 cells/mL and 110 ×10^4 cells/mL"}, {"measurement": "The number of cells PDX−/CHGA−", "setting": "[2]; [5]", "result": "4.5 ×10^4 cells/mL and 4.4 ×10^4 cells/mL and 7.2 ×10^4 cells/mL"}, {"measurement": "Total number of cells", "setting": "[2]; [5]", "result": "125 ×10^4 cells/mL and 109 ×10^4 cells/mL and 141 ×10^4 cells/mL"}, {"measurement": "proportion of PDX1-negative and CHGA-negative (PDX1−/CHGA−) cells", "setting": "[2]; [6]", "result": "drastically decreased"}, {"measurement": "proportion of PDX1-positive and CHGA-negative (PDX1+/CHGA−) cells", "setting": "[2]; [6]", "result": "no large change"}, {"measurement": "total number of cells after extended culture (in words)", "setting": "[2]; extended culture involving EGF", "result": "increased"}, {"measurement": "The number of cells CHGA+", "setting": "[2]; [7]", "result": "88 ×10^4 cells/mL"}, {"measurement": "The number of cells PDX+/CHGA−", "setting": "[2]; [7]", "result": "2.7 ×10^4 cells/mL"}, {"measurement": "The number of cells PDX−/CHGA−", "setting": "[2]; [7]", "result": "0.3 ×10^4 cells/mL"}, {"measurement": "Total number of cells", "setting": "[2]; [7]", "result": "91 ×10^4 cells/mL"}, {"measurement": "number of CHGA-positive endocrine cells after extended culture (in words)", "setting": "[2]; with respect to control cell population", "result": "not changed"}]}
{"compound": "EGF: epidermal growth factor added at 50 ng/ml to basal medium to promote proliferation of unintended cells", "values": [{"measurement": "The number of cells CHGA+", "setting": "[3]; [8]", "result": "128 ×10^4 cells/well and 123 ×10^4 cells/well"}, {"measurement": "The number of cells PDX+/CHGA−", "setting": "[3]; [8]", "result": "27 ×10^4 cells/well and 32 ×10^4 cells/well"}, {"measurement": "Total number of cells", "setting": "[3]; [8]", "result": "198 ×10^4 cells/well and 222 ×10^4 cells/well and 281 ×10^4 cells/well"}, {"measurement": "number of CHGA-positive endocrine cells (in words)", "setting": "[3]; [9]", "result": "no large change"}, {"measurement": "proportions of PDX1+/CHGA− and PDX1−/CHGA− non-endocrine cells", "setting": "[3]; [9]", "result": "markedly increased"}, {"measurement": "total number of cells after extended culture (in words)", "setting": "[3]; [9]", "result": "increased"}]}
